Like-named read-outs stand apart in the source and are kept apart here.
Assays:
weiblichen NMRI-Mäusen = assay: Sedative effect: inhibition of orientation hypermotility induced by a new environment, photoelectric measurement; assay type: in vivo, Maus; conditions: for ED50: Mus musculus, po, 0.5 h, Maus, read-out: Motilitätshemmung ED 50 %; for Wirkungsstärke (sedativ) der Referenzsubstanz / Motilitätshemmung um 50 %: -mal größere Dosen als Referenzsubstanz: relative to Chlorpromazin; for Wirkungsstärke (sedativ) der Referenzsubstanz: mouse p.o.; for sedative Wirkung: result in words
From the text: (§1) Sie eignen sich mit bevorzugter sedativ/transquilisierender und anti-monaminerger Wirkung als Sedativa/Hypnotika oder als Tranquilizer bzw. Neuroleptica. Andere erfindungsgemäße Verbindungen eignen sich wegen ihrer relativ selektiven blutdrucksenkenden Wirksamkeit zur Behandlung der Hypertonie und zur Entlastung des Herzen bei Herzinsuffizienz. ) Zum Nachweis der pharmakologischen Wirkungen wurden folgende Methoden verwendet: • 1. Sedative Wirkung • 4-8 Gruppen von jeweils 3 weiblichen NMRI-Mäusen erhalten die Substanz oral appliziert. Die photoelektrische Bestimmung der durch eine neue Umgebung induzierten Orientierungshypermotilität erfolgt 30 min nach der Applikation der Substanzen für eine Dauer von 30 min. • Als ED 50 wird die Dosis bestimmt, welche im Vergleich zu Placebo-behandelten Kontrolltieren eine Abnahme der Orientierungshypermotilität um 50 % bewirkt. • 2. Anti-Methamphetamin-Wirkung • Methamphetamin-HCl (2,5 mg/kg i.v.) ruft an Ratten regelmäßig folgende Symptome hervor: motorische Unruhe, Such- und Schnüffelbewegungen, Fellsträuben sowie Tremor (Janssen et al., Arzeim. Forsch./Drug Res. 13, 205, 1963, RANDRUP et al., Psychopharmacologia 11, 300, 1967). • Die Prüfsubstanzen werden 30 min vor Methamphetamin intraperitoneal verabfolgt. Kriterium für einen Substanzeffekt ist das Ausbleiben der Schnüffelbewegungen innerhalb eines 5-minütigen Beobachtungszeitraums nach Methamphetamin-Injektion. • Als mittlere Hemmdosis (ED 50) wird mittels Probitanalyse die Dosis ermittelt, die das Symptom bei der Hälfte der Tiere verhindert. • 3. Hypotensive Wirkung • Die blutdrucksenkende Wirkung wurde an narkotisierten Ratten (Stamm: Spraque Dawley, Gewicht: 230-280 g) in Urethan-Narkose (1,78 g/kg i.p.) nachgewiesen. Der Blutdruck wurde in der Aorta carotis gemessen. Die Substanzapplikation erfolgte in eine Vena jugularis (wäßrige Lösung, 1 ml/kg). Als ED 20 % wurden aus der linearen Regression zwischen log Dosis (mg/kg) und relativer Blutdrucksenkung (Δ%) die Dosen ermittelt, welche eine 20 %ige Blutdrucksenkung bewirken.

[1] = tested on: narkotisierten Ratten (Stamm: Spraque Dawley); assay: Hypotensive effect: blood pressure lowering in urethane-anaesthetised rats; assay type: in vivo, Ratte; conditions: for ED20: Rattus norvegicus, iv, read-out: Blutdrucksenkung ED 20 %; for Blutdrucksenkung ED 20 % R.W. (Relative Wirksamkeit: Chlorpromazin = 1,00) / Blutdrucksenkung ED 20 % R.W. (Relative Wirksamkeit; Chlorpromazin = 1,00): i.v.; for Q (ED 50 % Motilitätshemmung / ED 20 % Blutdrucksenkung): ratio of mouse p.o. ED 50 % to rat i.v. ED 20 %; for hypotensiv wirksame Dosen, -mal größer als die der Referenzsubstanz: rat i.v.
From the text: as §1

[2] = Table 1, Applikation: per. os., measured 30 min after application for 30 min
[3] = Table 1, Ratte, Urethan-Narkose, Applikation: i.v.
[4] = Table 2, Ratte, Urethan-Narkose
[5] = Table 2, Ratte, Urethan-Narkose, Applikation: i.v.
[6] = Table 1, Ratte, Urethan-Narkose

| SMILES | ED50 (weiblichen NMRI-Mäusen; [2]) [mg/kg] | sedative Wirkung (weiblichen NMRI-Mäusen) | ED50 (weiblichen NMRI-Mäusen; Table 2, Applikation: per os.) [mg/kg] | Blutdrucksenkung ED 20 % R.W. (Relative Wirksamkeit: Chlorpromazin = 1,00) [1, 4] | Q (ED 50 % Motilitätshemmung / ED 20 % Blutdrucksenkung) ([1]; Table 2) | ED20 [1, 5] [mg/kg] | further results |
| --- | --- | --- | --- | --- | --- | --- | --- |
| O=C1CCc2c(OCC(O)CN3CCN(c4ccc(F)cc4)CC3)cccc21 (racemic) [Beispiel 1, 4-(3-[4-(4-Fluorphenyl)-1-piperazinyl]-2-hydroxy-propoxy)--indanon-1] | 3.05 | sedativ wirken | – | – | – | – | Wirkungsstärke (sedativ) der Referenzsubstanz (weiblichen NMRI-Mäusen): 69%; ED20 [1, 3]: 1.07 mg/kg |
| Cc1ccccc1N1CCN(CC(O)COc2cccc3c2CCC3=O)CC1 (racemic) [Beispiel 10, 4-(3-[4-(2-Methylphenyl)-1-pipera-zinyl]-2-hydroxy-propoxy)-indanon-1] | – | – | 46.4 | 0,16 | 294 | – | Motilitätshemmung um 50 %: -mal größere Dosen als Referenzsubstanz (weiblichen NMRI-Mäusen): 20 mal; Wirksamkeit nach den blutdrucksenkenden Dosen (ED 20 %) von Chlorpromazin ([1]; relative to Chlorpromazin): 16% |
| COc1ccccc1N1CCN(CC(O)COc2cccc3c2CCC3=O)CC1 (racemic) [Beispiel 13, 4-(3-[4-(2-Methoxyphenyl)-1-pipera-zinyl]-2-hydroxy-propoxy)-indanon-1] | – | – | 11 | 0,89 | 376 | 0.0293 | Motilitätshemmung um 50 %: -mal größere Dosen als Referenzsubstanz (weiblichen NMRI-Mäusen): 5 mal; Wirksamkeit nach den blutdrucksenkenden Dosen (ED 20 %) von Chlorpromazin ([1]; relative to Chlorpromazin): 89% |
| COc1cccc(N2CCN(CC(O)COc3cccc4c3CCC4=O)CC2)c1 (racemic) [Beispiel 14, 4-(3-[4-(3-Methoxyphenyl)-1-pipera-zinyl]-2-hydroxy-propoxy)-indanon-1] | 9.44 | sedativ wirken | – | – | – | – | Wirkungsstärke (sedativ) der Referenzsubstanz (weiblichen NMRI-Mäusen): 22%; ED20 [1, 3]: 1 mg/kg |
| COc1ccccc1N1CCN(CC(O)COc2ccc3c(c2)CCC3=O)CC1 (racemic) [Beispiel 17] | – | – | 13.2 | 0,36 | 183 | 0.0722 | Quotienten aus den effektiven Dosen für die Motilitätshemmung (ED 50 %) und Blutdrucksenkung (ED 20 %) [1]: 183 |
| COc1ccc(N2CCN(CC(O)COc3ccc4c(c3)CCC4=O)CC2)cc1 (racemic) [Beispiel 19, 5-(3-[4-(4-Methoxyphenyl)-1-piperazi-nyl]-2-hydroxy-propoxy)-indanon-1] | 5.76 | sedativ wirken | – | – | – | – | ED20 [1, 3]: 7.91 mg/kg; hypotensiv wirksame Dosen, -mal größer als die der Referenzsubstanz ([1]; relative to Chlorpromazin): 300 mal |
| O=C1CCc2cccc(OCC(O)CN3CCN(c4ccccc4Cl)CC3)c21 (racemic) [Beispiel 20, 7-(3-[4-(2-Chlorphenyl)-1-piperazinyl]--2-hydroxy-propoxy)-indanon-1] | – | – | 42.4 | 2,50 | 4077 | 0.0104 | Motilitätshemmung um 50 %: -mal größere Dosen als Referenzsubstanz (weiblichen NMRI-Mäusen): 20 mal; Quotienten aus den effektiven Dosen für die Motilitätshemmung (ED 50 %) und Blutdrucksenkung (ED 20 %) [1]: 4 077; stärker wirksam als Chlorpromazin (Blutdrucksenkung ED 20 %) ([1]; relative to Chlorpromazin): 2,5 mal |
| COc1ccccc1N1CCN(CC(O)COc2cccc3c2C(=O)CC3)CC1 (racemic) [Beispiel 23, 7-(3-[4-(2-Methoxyphenyl)-1-piperazi-nyl]-2-hydroxy-propoxy)-indanon-1] | – | – | 19 | 0,46 | 333 | 0.057 | – |
| O=C1CCc2c(OCCCN3CCN(c4ccc(F)cc4)CC3)cccc21 [Beispiel 4, 4-(3-[4-(4-Fluorphenyl)-1-piperazinyl]-propoxy)-indan-1-on] | 3.56 | sedativ wirken | – | – | – | – | Blutdrucksenkung ED 20 % R.W. (Relative Wirksamkeit; Chlorpromazin = 1,00) [1, 6]: 0,14 |
| O=C1CCc2cccc(OCCCN3CCN(c4ccc(F)cc4)CC3)c21 [Beispiel 30, 7-(3-[4-(4-Fluorphenyl)-1-piperazinyl]--propoxy)-indanon-1] | 5.03 | sedativ wirken | – | – | – | – | Blutdrucksenkung ED 20 % R.W. (Relative Wirksamkeit; Chlorpromazin = 1,00) [1, 6]: 0,16; hypotensiv wirksame Dosen, -mal größer als die der Referenzsubstanz ([1]; relative to Chlorpromazin): 6 mal |
| CN(C)CCCN1c2ccccc2Sc2ccc(Cl)cc21 [Chlorpromazin, reference compound] | 2.11 | – | – | 1,00 | 81 | – | Quotienten aus den effektiven Dosen für die Motilitätshemmung (ED 50 %) und Blutdrucksenkung (ED 20 %) [1]: 81; ED20 [1]: 0.026 mg/kg; Blutdrucksenkung ED 20 % R.W. (Relative Wirksamkeit; Chlorpromazin = 1,00) [1, 6]: 1,00; Blutdrucksenkung ED 20 % [1, 5]: 0,0260 mg/kg |

Source: patent EP0043971A1, “Indanoneoxyalkylpiperazine derivatives, the preparation thereof and pharmaceutical compositions containing the same” (priority 1980, dated 1982)
